Test systems include M14 melanoma; A498 renal; HCT-116 colon; UO-31 renal; SF-295 CNS; T-47D breast; A549 NSCLC; OVCAR-5 ovarian; MOLT-4 leukemia; SW-620 colon; U251 CNS; SK-MEL-28 melanoma; HCC-2998 colon.
Experiment in all cases: growth of human tumour cells (NCI), 48 h

Molecules are shown by their SMILES.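 The compound was tested at five concentrations on cells cultured in 96-well plates, with a 48-hour exposure period. TGI: total growth inhibition.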 Bounds are passed on as bounds.

For `CCOC(=O)c1c(NC(=S)Nc2ccccc2)sc2c1CCN(C)C2`, the TGI in the assay on M14 melanoma, with A498 renal, in the assay on HCT-116 colon, in the assay on UO-31 renal, in the assay with SF-295 CNS and in the assay with T-47D breast was above 100 µM in each case. In addition, the TGI in the assay with A549 NSCLC, in the assay on OVCAR-5 ovarian and with MOLT-4 leukemia was above 100 µM each time.
With `COc1ccc(C2(CC(C)C)CCNC2)cc1OC` (stereo not drawn), the TGI with SW-620 colon, in the assay with M14 melanoma, with U251 CNS, in the assay on A498 renal, in the assay on HCT-116 colon and with UO-31 renal was above 100 µM throughout. For the same compound, the TGI with SK-MEL-28 melanoma was above 100 µM; with SF-295 CNS it was above 100 µM; with T-47D breast, above 100 µM; in the assay with HCC-2998 colon, 38.5 µM; in the assay on A549 NSCLC, above 100 µM; with OVCAR-5 ovarian it was above 100 µM.
On to `COc1ccc2c(=O)c3ccoc3[nH]c2c1`, for which the TGI in the assay on SW-620 colon, in the assay on M14 melanoma, with U251 CNS, in the assay on A498 renal, in the assay on HCT-116 colon and with UO-31 renal was above 100 µM each time. In addition, the TGI with SK-MEL-28 melanoma, in the assay with SF-295 CNS, in the assay with T-47D breast, in the assay with HCC-2998 colon and in the assay on MOLT-4 leukemia was above 100 µM each time.
As to `N#CC(O)CCOCc1ccccc1` (stereo not drawn), the TGI with SW-620 colon, in the assay on M14 melanoma, in the assay with U251 CNS, in the assay on A498 renal, in the assay with HCT-116 colon and with UO-31 renal was above 100 µM throughout. The TGI in the assay with SK-MEL-28 melanoma is above 100 µM; with SF-295 CNS, above 100 µM; with T-47D breast, above 100 µM; with A549 NSCLC it was above 100 µM; in the assay on OVCAR-5 ovarian it was above 100 µM; with MOLT-4 leukemia, 14.8 µM.
On to `O=c1[nH]c2nc3ccccc3c(=O)n2/c1=C/c1ccccc1`, for which the TGI was 47.6 µM with SW-620 colon; above 100 µM in the assay with M14 melanoma; above 100 µM in the assay on U251 CNS; above 100 µM in the assay on HCT-116 colon; above 100 µM with UO-31 renal; above 100 µM in the assay on SK-MEL-28 melanoma. Moreover, the TGI in the assay on SF-295 CNS, in the assay on T-47D breast, with HCC-2998 colon, in the assay on A549 NSCLC, with OVCAR-5 ovarian and in the assay with MOLT-4 leukemia was above 100 µM in each case.
Turning to `C/C(=C/CC[C@](C)(OC1OC(CO)C(O)C(O)C1O)[C@H]1CC[C@]2(C)[C@@H]1CC[C@@H]1[C@@]3(C)CC[C@H](O)C(C)(C)[C@@H]3C[C@H](O)[C@]12CO)CO` (stereo partly drawn), the TGI in the assay with SW-620 colon, with M14 melanoma, in the assay on U251 CNS, with A498 renal, in the assay on HCT-116 colon and in the assay on UO-31 renal was above 100 µM in each case. The TGI in the assay with SK-MEL-28 melanoma, with SF-295 CNS, in the assay on T-47D breast, in the assay with A549 NSCLC, with OVCAR-5 ovarian and in the assay on MOLT-4 leukemia was above 100 µM throughout.
For `CCOC(=O)C(=[N+]=[N-])C(=O)CSC#N`, the TGI in the assay on SW-620 colon, with M14 melanoma, in the assay with U251 CNS, in the assay with A498 renal, with HCT-116 colon and with UO-31 renal was above 100 µM throughout. Also, the TGI in the assay with SK-MEL-28 melanoma, in the assay on SF-295 CNS, in the assay with T-47D breast, in the assay on A549 NSCLC, with OVCAR-5 ovarian and in the assay with MOLT-4 leukemia was above 100 µM each time.
`CCOC(=O)c1cc(=O)c2cccc3c2n1CCS3`: the TGI in the assay on SW-620 colon, in the assay on M14 melanoma, with U251 CNS, with A498 renal, with HCT-116 colon and in the assay with UO-31 renal was above 100 µM throughout. The TGI with SK-MEL-28 melanoma, in the assay with SF-295 CNS, in the assay with T-47D breast, in the assay on A549 NSCLC, with OVCAR-5 ovarian and with MOLT-4 leukemia was above 100 µM each time.
As to `COc1cc(C2c3cc4c(cc3OC(NNC(N)=S)C2C)OCO4)cc(OC)c1OC` (stereo not drawn), the TGI was above 100 µM in the assay with SW-620 colon; above 51.9 µM with M14 melanoma; above 42.9 µM in the assay on U251 CNS; 34.7 µM in the assay on A498 renal; above 80.7 µM in the assay with HCT-116 colon; 60.1 µM with UO-31 renal. For the same compound, the TGI in the assay on SK-MEL-28 melanoma is above 100 µM; in the assay on SF-295 CNS, 0.884 µM; with T-47D breast it was above 31.6 µM; in the assay on HCC-2998 colon it was 18.7 µM; in the assay on A549 NSCLC it was above 100 µM; in the assay with OVCAR-5 ovarian it was above 100 µM.
`NC(=O)c1ncn(C2C=CC(CP(=O)(O)O)C2)c1N` (stereo not drawn): the TGI in the assay on SW-620 colon, with M14 melanoma, with U251 CNS, in the assay on HCT-116 colon, in the assay on UO-31 renal and with SK-MEL-28 melanoma was above 100 µM in each case. The TGI in the assay with SF-295 CNS, with T-47D breast, in the assay with HCC-2998 colon, with A549 NSCLC, in the assay on OVCAR-5 ovarian and in the assay on MOLT-4 leukemia was above 100 µM throughout.
Regarding `CCc1cccc(C(C)C)c1NC(=O)/C(=N\NC(N)=O)C(C(=O)OC)c1cnc2ccccc2n1` (stereo not drawn), the TGI was above 100 µM with SW-620 colon; above 100 µM in the assay with M14 melanoma; above 100 µM in the assay on U251 CNS; above 100 µM in the assay with A498 renal; 86.6 µM in the assay with HCT-116 colon; above 100 µM in the assay on UO-31 renal. Moreover, the TGI in the assay on SK-MEL-28 melanoma is above 100 µM; with SF-295 CNS, above 100 µM; with HCC-2998 colon, above 100 µM; in the assay with A549 NSCLC, 76.5 µM; in the assay with OVCAR-5 ovarian, above 100 µM; with MOLT-4 leukemia, above 100 µM.

For the origin of these results see PubChem BioAssay (NCI).
